What all share (assay type): in vivo, mouse
Data set [1] has as its system ddY mice. Nature of the data set: Prepulse inhibition (PPI) test, offspring after maternal glyphosate exposure. The note with it: juvenile offspring, maternal 0.095% glyphosate vs water. The procedure:
PPI: The offspring mice were tested for their acoustic startle reactivity (ASR) in a startle chamber (SR-LAB; San Diego Instruments, San Diego, CA, USA) using the standard methods described previously (9,10). The test sessions were begun after an initial 10-min acclimation period in the chamber. The mice were subjected to one of six trials: (1) pulse alone, as a 40 ms broadband burst; a pulse (40 ms broadband burst) preceded by 100 ms with a 20 ms prepulse that was (2) 4 dB, (3) 8 dB, (4) 12 dB, or (5) 16 dB over background (65 dB); and (6) background only (no stimulus). The amount of prepulse inhibition (PPI) was expressed as the percentage decrease in the amplitude of the startle reactivity caused by presentation of the prepulse (% PPI). The PPI test lasted 20 min in total.

For data set [2], the system named is ddY mice. Put plainly: Short-chain fatty acids in fecal samples after maternal glyphosate exposure. The note with it: offspring after maternal glyphosate exposure. The procedure:
Measurement of short-chain fatty acids—acetic acid, propionic acid, butyric acid, and valeric acid—in fecal samples was performed by the TechnoSuruga Laboratory, Co., Ltd. (Shizuoka, Japan).

The test system of data set [3] is sEH. Nature of the data set: Western blot of sEH in brain regions of juvenile offspring after MIA. The procedure: Administration of poly(I:C) into pregnant mice. The schedule of poly(I:C) treatment was performed as reported previously (13,36-39). The pregnant mice were injected intraperitoneally (i.p.) for six consecutive days from E12 to E17 with poly(I:C) (5.0 mg/kg/day, Sigma-Aldrich Co. Ltd., St. Louis, MO, USA) dissolved in physiological saline, or an equivalent volume (5 ml/kg) of saline. The male offspring were separated from their mothers at wearing (P21), and mice were caged each three-five in the groups in clear polycarbonate cage (22.5×33.8×14.0 cm). Mice were housed under controlled temperatures and 12-hour light/dark cycles (lights on between 07:00-19:00 h), with ad libitum food and water.
Collection of brain samples and oxylipin profiling. […]
Western blot analysis. […] 50 μg of protein were measured using the DC protein assay kit (Bio-Rad), and incubated for 5 min at 95° C., with an equal volume of 125 mM Tris-HCl, pH6.8, 20% glycerol, 0.1% bromophenol blue, 10% β-mercaptoethanol, 4% sodium dodecyl sulfate, and subjected to sodium dodecyl sulfate polyacrylamide gel electrophoresis, using 7.5% or AnyKD mini-gels (Mini-PROTEAN® TGX™ Precast Gel; Bio-Rad, CA, USA). […] After final three washes with TBST, bands were detected using enhanced chemiluminescence (ECL) prime Western Blotting Detection system (GE Healthcare Bioscience). […]
In general terms: In western blotting, separated proteins are transferred to a membrane and probed.

The test system of data set [4] is ddY mice. Put plainly: Novel object recognition test (NORT), offspring after MIA. The procedure: Experiments of TPPU in drinking water. For experiment of TPPU (synthesized at UC Davis, CA) in drinking water in juvenile and adolescent stages, TPPU (15 mg/L) or water in drinking water was given in the male offspring from P28 to P56. Subsequently, normal water was given to all groups for 4 weeks (P57-P84). Behavioral tests of adult offspring were performed during adulthood (P70-P84) after prenatal poly(I:C) injections (FIG. 4A).
For experiment of TPPU in drinking water in pregnant stages, TPPU (15 mg/L) or water in drinking water was given in the pregnant mice from E12 to P21. Subsequently, normal water was given to all groups for […] (P21-P42). Behavioral tests of offspring were performed during juvenile stage (P28-P42) after prenatal poly(I:C) injections (FIG. 6A).
Novel Object Recognition Test (NORT): Mice were habituated for 10 minutes in the box for 3 straight days. At 4th day, two objects (differing in shape and color but of similar size) were placed in the box 35.5 cm apart (symmetrically), and each animal was allowed to explore in the box for 5 minutes. […] The time that mice spent exploring each object was recorded. […] The mice were then allowed to explore freely for 5 minutes, and the time spent exploring each object was recorded. […]

The values that follow come from US12357598B2, “Treatment of neurodevelopmental disorders” (THE REGENTS OF THE UNIVERSITY OF CALIFORNIA, priority 2018, dated 2025).

With `O=C(O)CNCP(=O)(O)O` [glyphosate], in data set [1], the “prepulse inhibition (PPI)” value is given as “not different”. Further, in data set [2], the “levels of acetic acid in the fecal samples” value is “significantly increased”; the “propionic acid, butyric acid, and valeric acid in fecal samples” value was “not different”.

For the compound “polyriboinosinic-polyribocytidilic acid [Poly(I:C)]”, in data set [3] (poly(I:C) 5 mg/kg/day E12-E17), the “sEH protein in striatum and hippocampus (CA1, CA3, DG)” value is listed as “no changes”. Also, the “levels of sEH protein in the PFC” value in data set [3] (poly(I:C) 5 mg/kg/day E12-E17, vs saline-treated mice) is on record as “significantly higher”. Besides, in data set [4] (adult offspring after prenatal poly(I:C) exposure), the “exploratory preference in NORT” value is given as “Decreased”. Also, the “exploratory preference, retention session of NORT” value in data set [4] (juvenile offspring, poly(I:C)+water group vs saline+water group) is “significantly lower”.
